According to patent US9133204B2, “5-membered heterocyclic amides and related compounds” (H. Lundbeck A/S, priority 2007, dated 2015):
pIC50: −log10 of the molar value.

molecular target: T1, P2X7 receptor (Homo sapiens, UniProt Q99572); assay: High throughput P2X7 calcium mobilization assay (Example 4A); format: cell-based; conditions: SH-SY5Y cells; 50% decrease in fluorescence response of cells exposed to 80 μM BzATP; Table I
T1 construct: host or cells: SH-SY5Y
T1 sequence (Q99572 1-595): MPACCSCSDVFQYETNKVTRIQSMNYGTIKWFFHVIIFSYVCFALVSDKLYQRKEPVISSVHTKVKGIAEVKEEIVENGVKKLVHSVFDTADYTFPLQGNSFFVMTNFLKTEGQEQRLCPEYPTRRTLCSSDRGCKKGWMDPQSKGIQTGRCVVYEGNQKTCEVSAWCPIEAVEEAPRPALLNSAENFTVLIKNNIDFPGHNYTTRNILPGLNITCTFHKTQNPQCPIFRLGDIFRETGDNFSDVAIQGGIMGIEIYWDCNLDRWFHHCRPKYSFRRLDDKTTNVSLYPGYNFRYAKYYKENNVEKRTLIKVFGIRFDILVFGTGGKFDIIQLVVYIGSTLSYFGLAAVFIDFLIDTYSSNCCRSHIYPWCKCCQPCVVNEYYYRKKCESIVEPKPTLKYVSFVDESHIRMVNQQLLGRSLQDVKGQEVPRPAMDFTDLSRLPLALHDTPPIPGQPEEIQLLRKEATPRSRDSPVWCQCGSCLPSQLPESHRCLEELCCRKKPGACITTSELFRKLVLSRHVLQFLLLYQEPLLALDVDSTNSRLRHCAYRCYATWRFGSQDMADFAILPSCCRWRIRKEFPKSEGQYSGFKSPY
Outline: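 Calcium mobilization read by FLIPR as peak fluorescence over 2 min after adding BzATP to a final 80 μM (about EC50). Beforehand, Fluo-4 AM-loaded SH-SY5Y cells sat 1 h at room temperature with compound at 1–2500 nM in pH 7.4 sucrose/HEPES buffer; signal minus no-agonist wells.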

pIC50, ≥ 5.70:
COc1ccc(C2(CNC(=O)c3cn(-c4ncc(F)c(N)n4)nc3C(F)(F)F)CCCCC2)cc1 [Compound 168, 1-(4-amino-5-fluoropyrimidin-2-yl)-N-{[1-(4-methoxyphenyl)cyclohexyl]methyl}-3-(trifluoromethyl)-1H-pyrazole-4-carboxamide]
Nc1nc(-n2cc(C(=O)NCC(O)C34CC5CC(CC(C5)C3)C4)c(C(F)(F)F)n2)ncc1F (stereo not shown) [Compound 169, N-(2-adamantan-1-yl-2-hydroxyethyl)-1-(4-amino-5-fluoropyrimidin-2-yl)-3-(trifluoromethyl)-1H-pyrazole-4-carboxamide]
Cc1cnc(-n2cc(C(=O)NCC3(c4ccc(C(F)(F)F)cc4)CCCCC3)c(C)n2)nc1N [Compound 170, 1-(4-amino-5-methylpyrimidin-2-yl)-3-methyl-N-({1-[4-(trifluoromethyl)phenyl]cyclohexyl}methyl)-1H-pyrazole-4-carboxamide]
Cc1cnc(-n2cc(C(=O)NCC(CC(C)C)c3ccc(C(F)(F)F)cc3)c(C(F)(F)F)n2)nc1N (stereo not shown) [Compound 171, 1-(4-amino-5-methylpyrimidin-2-yl)-N-{4-methyl-2-[4-(trifluoromethyl)phenyl]pentyl}-3-(trifluoromethyl)-1H-pyrazole-4-carboxamide]
Cc1cnc(-n2cc(C(=O)NCC3(c4ccc(C(F)(F)F)cc4)CCCCC3)c(C(F)(F)F)n2)nc1N [Compound 172, 1-(4-amino-5-methylpyrimidin-2-yl)-3-(trifluoromethyl)-N-({1-[4-(trifluoromethyl)phenyl]cyclohexyl}methyl)-1H-pyrazole-4-carboxamide]
Cc1nn(-c2nccc(N)n2)cc1C(=O)NCC(CC(C)C)c1ccc(C(F)(F)F)cc1 (stereo not shown) [Compound 173, 1-(4-aminopyrimidin-2-yl)-3-methyl-N-{4-methyl-2-[4-(trifluoromethyl)phenyl]pentyl}-1H-pyrazole-4-carboxamide]
Cc1nn(-c2cnccn2)cc1C(=O)NCC(CC(C)C)c1ccc(C(F)(F)F)cc1 (stereo not shown) [Compound 174, 3-methyl-N-{4-methyl-2-[4-(trifluoromethyl)phenyl]pentyl}-1-pyrazin-2-yl-1H-pyrazole-4-carboxamide]
Cc1nn(-c2nccc(N)n2)cc1C(=O)NCC1(c2ccc(C(F)(F)F)cc2)CCCCC1 [Compound 175, 1-(4-aminopyrimidin-2-yl)-3-methyl-N-({1-[4-(trifluoromethyl)phenyl]cyclohexyl]methyl)-1H-pyrazole-4-carboxamide]
Cc1cnc(-n2cc(C(=O)NCC(CC(C)C)c3ccc(C(F)(F)F)cc3)c(C(C)(C)C)n2)nc1N (stereo not shown) [Compound 176, 1-(4-amino-5-methylpyrimidin-2-yl)-3-tert-butyl-N-{4-methyl-2-[4-(trifluoromethyl)phenyl]pentyl}-1H-pyrazole-4-carboxamide]
Cc1cnc(-n2cc(C(=O)NCC3(c4ccc(C(F)(F)F)cc4)CCCCC3)c(C(C)(C)C)n2)nc1N [Compound 177, 1-(4-amino-5-methylpyrimidin-2-yl)-3-tert-butyl-N-({1-[4-(trifluoromethyl)phenyl]cyclohexyl]methyl)-1H-pyrazole-4-carboxamide]
Cc1nn(-c2ncccn2)cc1C(=O)NCC(CC(C)C)c1ccc(C(F)(F)F)cc1 (stereo not shown) [Compound 178, 3-methyl-N-{4-methyl-2-[4-(trifluoromethyl)phenyl]pentyl}-1-pyrimidin-2-yl-1H-pyrazole-4-carboxamide]
Cc1nn(-c2nccnc2N)cc1C(=O)NCC(CC(C)C)c1ccc(C(F)(F)F)cc1 (stereo not shown) [Compound 179, 1-(3-aminopyrazin-2-yl)-3-methyl-N-{4-methyl-2-[4-(trifluoromethyl)phenyl]pentyl}-1H-pyrazole-4-carboxamide]
Cc1nn(-c2cncc(N)n2)cc1C(=O)NCC(CC(C)C)c1ccc(C(F)(F)F)cc1 (stereo not shown) [Compound 180, 1-(6-aminopyrazin-2-yl)-3-methyl-N-{4-methyl-2-[4-(trifluoromethyl)phenyl]pentyl}-1H-pyrazole-4-carboxamide]
Cc1nn(-c2ncccn2)cc1C(=O)NCC1(c2ccc(C(F)(F)F)cc2)CCCCC1 [Compound 181, 3-methyl-1-pyrimidin-2-yl-N-({1-[4-(trifluoromethyl)phenyl]cyclohexyl]methyl)-1H-pyrazole-4-carboxamide]
Cc1nn(-c2nccnc2N)cc1C(=O)NCC1(c2ccc(C(F)(F)F)cc2)CCCCC1 [Compound 182, 1-(3-aminopyrazin-2-yl)-3-methyl-N-({1-[4-(trifluoromethyl)phenyl]cyclohexyl}methyl)-1H-pyrazole-4-carboxamide]
Cc1nn(-c2cncc(N)n2)cc1C(=O)NCC1(c2ccc(C(F)(F)F)cc2)CCCCC1 [Compound 183, 1-(6-aminopyrazin-2-yl)-3-methyl-N-({1-[4-(trifluoromethyl)phenyl]cyclohexyl}methyl)-1H-pyrazole-4-carboxamide]
Cc1nn(-c2cnccn2)cc1C(=O)NCC1(c2ccc(C(F)(F)F)cc2)CCCCC1 [Compound 184, 3-methyl-1-pyrazin-2-yl-N-({1-[4-(trifluoromethyl)phenyl]cyclohexyl}methyl)-1H-pyrazole-4-carboxamide]
COc1ccnc(-n2cc(C(=O)NCC3(c4cccnc4)CCCCC3)c(C(F)(F)F)n2)n1 [Compound 185, 1-(4-methoxypyrimidin-2-yl)-N-[(1-pyridin-3-ylcyclohexyl)methyl]-3-(trifluoromethyl)-1H-pyrazole-4-carboxamide]
Cc1nccnc1-n1cc(C(=O)NCC2(c3cccnc3)CCCCC2)c(C(F)(F)F)n1 [Compound 186, 1-(3-methylpyrazin-2-yl)-N-[(1-pyridin-3-ylcyclohexyl)methyl]-3-(trifluoromethyl)-1H-pyrazole-4-carboxamide]
Cc1cncc(-n2cc(C(=O)NCC3(c4cccnc4)CCCCC3)c(C(F)(F)F)n2)n1 [Compound 187, 1-(6-methylpyrazin-2-yl)-N-[(1-pyridin-3-ylcyclohexyl)methyl]-3-(trifluoromethyl)-1H-pyrazole-4-carboxamide]
CCc1nccnc1-n1cc(C(=O)NCC2(c3cccnc3)CCCCC2)c(C(F)(F)F)n1 [Compound 188, 1-(3-ethylpyrazin-2-yl)-N-[(1-pyridin-3-ylcyclohexyl)methyl]-3-(trifluoromethyl)-1H-pyrazole-4-carboxamide]
Cc1cnc(-n2cc(C(=O)NCC3(c4ccc(F)cc4)CCCCC3)c(C(F)(F)F)n2)nc1N [Compound 190, 1-(4-amino-5-methylpyrimidin-2-yl)-N-{[1-(4-fluorophenyl)cyclohexyl]methyl}-3-(trifluoromethyl)-1H-pyrazole-4-carboxamide]
COc1cnc(-n2cc(C(=O)NCC3(c4cccnc4)CCCCC3)c(C(F)(F)F)n2)nc1 [Compound 191, 1-(5-methoxypyrimidin-2-yl)-N-[(1-pyridin-3-ylcyclohexyl)methyl]-3-(trifluoromethyl)-1H-pyrazole-4-carboxamide]
O=C(NCC1(c2cccnc2)CCCCC1)c1cn(-c2ncc(Cl)cn2)nc1C(F)(F)F [Compound 192, 1-(5-chloropyrimidin-2-yl)-N-[(1-pyridin-3-ylcyclohexyl)methyl]-3-(trifluoromethyl)-1H-pyrazole-4-carboxamide]
O=C(NCCC12CC3CC(CC(C3)C1)C2)c1cn(-c2ncccn2)nc1C(F)(F)F [Compound 193, N-(2-adamantan-1-ylethyl)-1-pyrimidin-2-yl-3-(trifluoromethyl)-1H-pyrazole-4-carboxamide]
CC1(C)C2CC[C@@H](CNC(=O)c3cn(-c4ncccn4)nc3C(F)(F)F)C1C2 (stereo partly drawn) [Compound 194, N-{[(2R)-6,6-dimethylbicyclo[3.1.1]hept-2-yl]methyl}-1-pyrimidin-2-yl-3-(trifluoromethyl)-1H-pyrazole-4-carboxamide]
O=C(NCC1(c2ccc(Cl)cc2)CCCCC1)c1cn(-c2ncccn2)nc1C(F)(F)F [Compound 195, N-{[1-(4-chlorophenyl)cyclohexyl]methyl}-1-pyrimidin-2-yl-3-(trifluoromethyl)-1H-pyrazole-4-carboxamide]
O=C(NCC1(c2ccc(C(F)(F)F)cc2)CCCCC1)c1cn(-c2ncccn2)nc1C(F)(F)F [Compound 196, 1-pyrimidin-2-yl-3-(trifluoromethyl)-N-({1-[4-(trifluoromethyl)phenyl]cyclohexyl]methyl)-1H-pyrazole-4-carboxamide]
